Source: patent publication US8129527B2, “Analogs of dehydrophenylahistins and their therapeutic use” (Nereus Pharmacuticals, Inc., priority 2006, dated 2012)

Row | Structure (SMILES) | melting point
1 | CC(C)(C)c1ocnc1/C=c1\[nH]c(=O)/c(=C/c2ccccc2Cl)[nH]c1=O [KPU-204, 3-{(Z)-1-[5-(tert-Butyl)-1H-4-oxazolyl]methylidene}-6-[(Z)-1-(2-chlorophenyl)methlidene]-2,5-piperazinedione] | 166 to 168 °C
2 | Cc1cccc(/C=c2\[nH]c(=O)/c(=C/c3ncoc3C(C)(C)C)[nH]c2=O)c1 | 151 to 153 °C
3 | CC(C)(C)c1ocnc1/C=c1\[nH]c(=O)/c(=C/c2cccc(F)c2)[nH]c1=O [KPU-202, 3-{(Z)-1-[5-(tert-Butyl)-1H-4-oxazolyl]methylidene}-6-[(Z)-1-(3-fluorophenyl)methylidene]-2,5-piperazinedione] | 143 to 145 °C
4 | CC(C)(C)c1ocnc1/C=c1\[nH]c(=O)/c(=C/c2cccc([N+](=O)[O-])c2)[nH]c1=O | 225 to 227 °C
5 | CC(C)(C)c1ocnc1/C=c1\[nH]c(=O)/c(=C/c2cccc(Cl)c2Cl)[nH]c1=O | 198 to 200 °C
6 | CC(C)(C)c1ocnc1/C=c1\[nH]c(=O)/c(=C/c2cccc(Cl)c2)[nH]c1=O | 171 to 173 °C
7 | CC(C)(C)c1ocnc1/C=c1\[nH]c(=O)/c(=C/c2ccc(Br)o2)[nH]c1=O | 184 to 186 °C
8 | CC(C)(C)c1ocnc1/C=c1\[nH]c(=O)/c(=C/c2cccs2)[nH]c1=O | 211 to 213 °C
9 | C=Cc1cccc(/C=c2\[nH]c(=O)/c(=C/c3ncoc3C(C)(C)C)[nH]c2=O)c1 | 150 to 152 °C
10 | CC(C)(C)c1ocnc1/C=c1\[nH]c(=O)/c(=C/c2cc3ccccc3s2)[nH]c1=O | 225 to 227 °C
11 | CC(C)(C)c1ocnc1/C=c1\[nH]c(=O)/c(=C/c2cc(F)cc3c2OCOC3)[nH]c1=O | 189 to 191 °C
12 | Cc1oc(-c2ccccc2)cc1/C=c1\[nH]c(=O)/c(=C/c2ncoc2C(C)(C)C)[nH]c1=O | 218 to 220 °C
13 | CC(C)(C)c1ocnc1/C=c1\[nH]c(=O)/c(=C/c2ccnc3ccccc23)[nH]c1=O | 106 to 108 °C
14 | CC(C)(C)c1ocnc1/C=c1\[nH]c(=O)/c(=C/c2cccc(C(F)(F)F)c2)[nH]c1=O | 243 to 245 °C
15 | CC(C)(C)c1ocnc1/C=c1\[nH]c(=O)/c(=C/c2ccc3nsnc3c2)[nH]c1=O | 234 to 236 °C
16 | CC(C)(C)c1ocnc1/C=c1\[nH]c(=O)/c(=C/c2ccccn2)[nH]c1=O | 230 to 232 °C

More lines, now with the values ahead:

Row | melting point | Structure (SMILES)
17 | 133 to 135 °C | CC(C)(C)c1ocnc1/C=c1\[nH]c(=O)/c(=C/c2cn(S(=O)(=O)c3ccccc3)c3ccccc23)[nH]c1=O [KPU-239, 3-{(Z)-1-[5-(tert-Butyl)-1H-4-oxazolyl]methylidene}-6-[(Z)-1-(phenylsulfonyl-3-indolyl)methlidene]-2,5-piperazinedione]
18 | 187 to 189 °C | CC(C)(C)c1ocnc1/C=c1\[nH]c(=O)/c(=C/c2cccc(OC(F)(F)F)c2)[nH]c1=O [KPU-216, 3-{(Z)-1-[5-(tert-Butyl)-1H-4-oxazolyl]methylidene}-6-[(Z)-1-(3-trifluoromethoxyphenyl)methlidene]-2,5-piperazinedione]
19 | 180 to 182 °C | CC(C)(C)c1ocnc1/C=c1\[nH]c(=O)/c(=C/CCc2ccccc2)[nH]c1=O [KPU-228, 3-{(Z)-1-[5-(tert-Butyl)-1H-4-oxazolyl]methylidene}-6-[(Z)-1-(phenylpropyl)methlidene]-2,5-piperazinedione]
20 | 170 to 172 °C | CC(C)(C)c1ocnc1/C=c1\[nH]c(=O)/c(=C/c2ccccc2F)[nH]c1=O [KPU-214, 3-{(Z)-1-[5-(tert-Butyl)-1H-4-oxazolyl]methylidene}-6-[(Z)-1-(2-fluorophenyl)methlidene]-2,5-piperazinedione]
21 | 164 to 166 °C | CC(C)(C)c1ocnc1/C=c1\[nH]c(=O)/c(=C/c2ccoc2)[nH]c1=O [KPU-217, 3-{(Z)-1-[5-(tert-Butyl)-1H-4-oxazolyl]methylidene}-6-[(Z)-1-(3-furyl)methlidene]-2,5-piperazinedione]
22 | 155 to 157 °C | CC(C)(C)c1ocnc1/C=c1\[nH]c(=O)/c(=C/c2ccsc2)[nH]c1=O [KPU-226, 3-{(Z)-1-[5-(tert-Butyl)-1H-4-oxazolyl]methylidene}-6-[(Z)-1-(3-thienyl)methlidene]-2,5-piperazinedione]
23 | 212 to 214 °C | CC(C)(C)c1ocnc1/C=c1\[nH]c(=O)/c(=C/c2ccc(-c3cccs3)s2)[nH]c1=O [KPU-234, 3-{(Z)-1-[5-(tert-Butyl)-1H-4-oxazolyl]methylidene}-6-[(Z)-1-(2,2′-bithienyl)methlidene]-2,5-piperazinedsione]
24 | 201 to 203 °C | CCOc1ccc2ccccc2c1/C=c1\[nH]c(=O)/c(=C/c2ncoc2C(C)(C)C)[nH]c1=O [KPU-229, 3-{(Z)-1-[5-(tert-Butyl)-1H-4-oxazolyl]methylidene}-6-[(Z)-1-(2-ethoxy-1-naphthyl)methlidene]-2,5-piperazinedione]
25 | 151 to 153 °C | COc1ccccc1/C=c1\[nH]c(=O)/c(=C/c2ncoc2C(C)(C)C)[nH]c1=O [KPU-224, 3-{(Z)-1-[5-(tert-Butyl)-1H-4-oxazolyl]methylidene}-6-[(Z)-1-(2-methoxyphenyl)methlidene]-2,5-piperazinedione]
26 | 234 to 236 °C | COc1ccc2ccccc2c1/C=c1\[nH]c(=O)/c(=C/c2ncoc2C(C)(C)C)[nH]c1=O [KPU-230, 3-{(Z)-1-[5-(tert-Butyl)-1H-4-oxazolyl]methylidene}-6-[(Z)-1-(2-methoxy-1-naphthyl)methlidene]-2,5-piperazinedione]
27 | 194 to 196 °C | CC(C)(C)c1ocnc1/C=c1\[nH]c(=O)/c(=C/c2c(F)c(F)cc(F)c2F)[nH]c1=O [KPU-236, 3-{(Z)-1-[5-(tert-Butyl)-1H-4-oxazolyl]methylidene}-6-[(Z)-1-(2,3,5,6-tetrafluorophenyl)methlidene]-2,5-piperazinedione]
28 | 142 to 144 °C | Cc1ccsc1/C=c1\[nH]c(=O)/c(=C/c2ncoc2C(C)(C)C)[nH]c1=O [KPU-219, 3-{(Z)-1-[5-(tert-Butyl)-1H-4-oxazolyl]methylidene}-6-[(Z)-1-(3-methyl-2-thienyl)methlidene]-2,5-piperazinedione]
29 | 185 to 187 °C | CC(C)(C)c1ocnc1/C=c1\[nH]c(=O)/c(=C/c2cc(F)cc(F)c2F)[nH]c1=O [KPU-235, 3-{(Z)-1-[5-(tert-Butyl)-1H-4-oxazolyl]methylidene}-6-[(Z)-1-(2,3,5-trifluorophenyl)methylidene]-2,5-piperazinedione]
30 | 274 to 276 °C | CC(C)(C)c1ocnc1/C=c1\[nH]c(=O)/c(=C/c2c3ccccc3cc3ccccc23)[nH]c1=O [KPU-231, 3-{(Z)-1-[5-(tert-Butyl)-1H-4-oxazolyl]methylidene}-6-[(Z)-1-(9-anthryl)methlidene]-2,5-piperazinedione]
31 | 170 to 172 °C | CC(C)(C)c1ocnc1/C=c1\[nH]c(=O)/c(=C/c2cccc(Br)c2)[nH]c1=O [KPU-212, 3-{(Z)-1-[5-(tert-Butyl)-1H-4-oxazolyl]methylidene}-6-[(Z)-1-(3-bromophenyl)methlidene]-2,5-piperazinedione]
32 | 124 to 126 °C | CCOc1cccc(/C=c2\[nH]c(=O)/c(=C/c3ncoc3C(C)(C)C)[nH]c2=O)c1 [KPU-210, 3-{(Z)-1-[5-(tert-Butyl)-1H-4-oxazolyl]methylidene}-6-[(Z)-1-(3-ethoxyphenyl)methlidene]-2,5-piperazinedione]
